From patent publication EP2229935A1, “Peptide derivatives or pharmaceutically acceptable salts thereof, method for producing the same, use of said derivatives and pharmaceutical composition” (Nebolsin, Vladimir Evgenievich, priority 1997, dated 1999)
Marks after values point to notes of the source that are not given here.

Experiments:
[1] = system: Wistar male rats; test: Blood glucose level in intact rats; assay type: in vivo; conditions: for Blood glucose level (mg/dl) 2 hours after / Blood glucose level (mg/dl) 5 hours after: deprived of food; for Blood glucose level (mg/dl) 2 hours before: intragastral four days
Experimental: (§1) Experiments were carried out on Wistar male rats weighing 250-300 g. Experimental diabetes was induced with single intravenous injection of streptozotocine (the Synthez cooperative enterprise at the IMBG of the Academy of Sciences of Ukraine) at a dose 42 mg/kg to rats which were preliminarily fasting for 24 hours with access to food immediately following injection. Rats were selected for experiment 2 weeks after diabetes induction with glycemia 120-180 mg/dl. Each group included 12 animals.
(§2) The compounds were intragastrally administered to intact animals and to rats with streptozotocine diabetes for four days at daily doses 50 µg/kg and 500 µg/kg in water solution at a rate of 1 ml per 200 g of body mass. Intact animals were given the compounds III and XLIV, and rats with induced diabetes were given the compound XLIV. Check blood glucose level determination was done at the day of experiment, then animals were administered the test compounds and were deprived of food. The control animals received a respective water volume. Effect was estimated by change in blood glucose level in 2 and 5 hours. Then animals received forage and 24 hours after the last drug administration blood was again sampled for examination. 0.1 ml of blood were collected from the tail vein. Glucose level was determined using the o-toluidine method.
(§3) Glucose level was calculated in mg/dl using standard glucose solutions. Then the degree of change in glucose level in relation to the initial level was determined for each animal with its expression in percent from the initial level. Final calculation was performed for each group of animals. Each group included 10 animals.

[2] = system: peritoneal macrophages; test: Activity of peritoneal macrophages (NBT reduction test); assay type: in vivo, mongrel white male mice; conditions: for portion of active macrophages: mice, oral three days at 50 and 500 µg/kg
Experimental: Change in the activity of peritoneal macrophages (PM) as effected by the test compounds was studied.
Experiments were carried out on mongrel white male mice with initial body mass 20-22 g. Each group included 10 animals. Compounds III, VI, XLIV were dissolved in normal saline (NS). The test compounds were administered to animals orally for three days at doses 50 and 500 µg/kg. Animals of the control group were given equal volume of NS. Mice were sacrified 20 hours after the last compound administration, peritoneal cavity was washed with 1.5 ml Henks solution comprising 5 U/ml heparine. 0.1 ml of wash solution were incubated for 30 minutes at 37°C with 0.1 ml 0.2% nitroblue tetrasolium (NBT) solution, then smears were prepared. Nuclei were additionaly stained with o.1% neutral red solution. Results were expressed in percent of active cells [Klimov V.V., Kolovkina T.V. Nitroblue tetrasolium reduction test stimulated with pyrogenal. Laborotornoye delo (Laboratory matter) (1982), No 10, pp. 624-625]. […]

[3] = system: [C^14]-arachidonic acid; test: Metabolism of [C^14]-arachidonic acid in pulmonary tissue homogenate of treated mice; assay type: in vivo, CBA male mice; conditions: CBA mice lung homogenate; 50 µg/kg for three days
Experimental: Studies were carried out on CBA male mice fed a standard vivarium ration. […] Then animals were sacrified, their lungs were taken out, frozen in liquid nitrogen, homogenized in a glass homogenizer manufactured by the Wheaton company (U.S.A.) at +4°C in 10 volumes 0.05 M Tris-HCl buffer. […] Densitometry of the autoradiochromatograms obtained on the X-ray films X-Omat AR (Kodak, U.S.A.) and HS 11 (ORWO, Germany) were performed on the KS 3 densiscan (Kipp and Zonnen, Holland). Quantative analysis of individual eucosanoids was carried out using radiometry of the fractions obtained with high performance liquid chromatography (the Gilson company HPLC-system, France; the Du Pont company ZORBAX C8 column, U.S.A.) and with elution of spots on TLC-plates.

[4] = system: white mongrel male rats; test: Carrageenan paw edema, cutaneous gel application (series 2); assay type: in vivo
Experimental: Experiment was carried out on white mongrel male rats weighing 280-300 g. Carrageenan-induced edema was caused according to the method of Winter et al. [[inter et al. In: De Rosa M., Giroud J.P., Willoughby D.A. Studies of the mediators of the acute inflammatory reponse induced in rats in different sites by carrageenan and turpentine. […] Paw volume measurement was done using a plethysmograph (Ugo Basile) 1, 3 and 4 hours after carrageenan administration. Inhibition of inflammatory reaction expressed in percent, was calculated according to the formula: 100-[(R-L(exper.))/(L):(R-L(control))/(L)x100](%) [formula] where R - the right paw volume, L - the left paw volume.
Series 2 of experiment. 2% carrageenan solution was injected sublaterally into paws of rats. In 1 minute 0.1 ml of gel comprising the test compounds were applied on the right paw. Gel base consisted of propylene glycol dissolved in the mixture of water and ethanol. Concentration of the compounds in the gel was 1%. Volume of paws was measured 4 hours after carrageenan administration.

[5] = system: Wistar male rats; test: Blood glucose level in rats with streptozotocine diabetes; assay type: in vivo; conditions: for Blood glucose level: Initial level: intragastral four days
Experimental: as §1, §2, §3

[6] = system: Isolate HIV-1/IV17 of type 1 human immunodeficiency virus; test: Viability of MT-4 cells acutely infected with HIV-1; assay type: cell-based; conditions: day 7
Experimental: Study was carried out on the culture of human lymphoblastoid cells MT-4. Isolate HIV-1/IV17 of type 1 human immunodeficiency virus from the collection of the D.I.Ivanovsky Institute for Virology was used in experiment. The test compounds of general formula (I): III, VI, VII were introduced into cellular culture at concentrations 1.0; 0.1 and 0.01 µg/ml. The reference drug Azidothymidine was introduced at a dose 0.05 µM/ml. The compounds were introduced into the culture of MT-4 cells at a dose 1000 TCD50 one hour prior to virus introduction. Viability of MT-4 cells was estimated by day 7 of experiment.
Viability of cells was the main efficacy parameter of the test compounds.

[7] = score 0 (no formazane inclusions, inactive PM), 50 µg/kg orally for three days
[8] = score 0 (no formazane inclusions, inactive PM), 500 µg/kg orally for three days
[9] = score 1 (single formazane inclusions), 50 µg/kg orally for three days
[10] = score 1 (single formazane inclusions), 500 µg/kg orally for three days
[11] = score 2 (inclusions fill up to 1/3 of PM cytoplasm), 50 µg/kg orally for three days
[12] = score 2 (inclusions fill up to 1/3 of PM cytoplasm), 500 µg/kg orally for three days
[13] = score 3 (inclusions fill up to 1/2 of PM cytoplasm), 50 µg/kg orally for three days
[14] = score 3 (inclusions fill up to 1/2 of PM cytoplasm), 500 µg/kg orally for three days

O=C(O)CCCC(=O)NCCc1c[nH]cn1 [compound III, N-GLUTARYLHISTAMINE]
Blood glucose level (mg/dl) 24 hours after ([1]; 50 µg/kg): 66.5 ± 3.3 mg/dL
Blood glucose level (mg/dl) 24 hours after ([1]; 500 µg/kg): 73.1 ± 3.4 mg/dL
Blood glucose level (mg/dl) 2 hours after ([1]; 50 µg/kg): 58.5 ± 5.9 mg/dL
Blood glucose level (mg/dl) 5 hours after ([1]; 50 µg/kg): 70.8 ± 5.5 mg/dL
Blood glucose level (mg/dl) 2 hours after ([1]; 500 µg/kg): 69.9 ± 2.8*^2 mg/dl
Blood glucose level (mg/dl) 5 hours after ([1]; 500 µg/kg): 72.6 ± 1.5*^2 mg/dl
Blood glucose level (mg/dl) 2 hours before ([1]; 50 µg/kg): 84.2 ± 6.1 mg/dL
Blood glucose level (mg/dl) 2 hours before ([1]; 500 µg/kg): 71.3 ± 4.0 mg/dL
portion of active macrophages [2]: pronounced in study of the both substance doses
Activity of macrophages, percent [2, 7]: 11.6 ± 2.8%
Activity of macrophages, percent [2, 8]: 12.8 ± 1.3%
Activity of macrophages, percent [2, 9]: 27.5 ± 2.5%
Activity of macrophages, percent [2, 10]: 31.3 ± 2.3%
Activity of macrophages, percent [2, 11]: 44.6 ± 1.9%
Activity of macrophages, percent [2, 12]: 46.0 ± 2.6%
Activity of macrophages, percent [2, 13]: 15.8 ± 3.3%
Activity of macrophages, percent [2, 14]: 10.9 ± 2.1%
5-HETE+HHT, percent of AA conversion [3]: 13.64 ± 0.26% of AA conversion
6-keto-PGF1α, percent of AA conversion [3]: 7.95 ± 0.28% of AA conversion
12-, 15-HETE, percent of AA conversion [3]: 23.82 ± 0.82% of AA conversion
PGE2, percent of AA conversion [3]: 3.07 ± 0.11% of AA conversion
PGF2α, percent of AA conversion [3]: 8.05 ± 0.15% of AA conversion
Phospholipids, percent of AA conversion [3]: 7.41 ± 0.25% of AA conversion
TXB2, percent of AA conversion [3]: 5.76 ± 0.24% of AA conversion
Unmetabolized AA, percent of AA conversion [3]: 15.32 ± 1.56% of AA conversion
Volume of paws (conditional units) Right ([4]; 0.1 ml of 1% gel on right paw, 4 hours after carrageenan): 2.13 ± 0.64 conditional units
Volume of paws (conditional units) left ([4]; 1% gel group, left paw, 4 hours): 1.83 ± 0.21 conditional units
Inflammation inhibition (%) ([4]; 1% gel, 4 hours): 60%
Volume increment ([4]; 1% gel, 4 hours): 0.30 ±0.06*^l
Blood glucose level in 2 hours, percent from the initial level ([5]; 50 µg/kg): 65.4 ± 4.3%
Blood glucose level in 5 hours, percent from the initial level ([5]; 50 µg/kg): 43.9 ± 4.9%
Blood glucose level in 24 hours, percent from the initial level ([5]; 50 µg/kg): 83.7 ± 6.6%
Blood glucose level: mg/dl in 2 hours ([5]; 50 µg/kg): 94.4 ± 5.4 mg/dL
Blood glucose level: mg/dl in 5 hours ([5]; 50 µg/kg): 64.1 ± 5.0 mg/dL
Blood glucose level: mg/dl in 24 hours ([5]; 50 µg/kg): 122.2 ± 9.2 mg/dL
Blood glucose level in 2 hours, percent from the initial level ([5]; 500 µg/kg): 67.6 ± 3.6%
Blood glucose level in 5 hours, percent from the initial level ([5]; 500 µg/kg): 44.9 ± 4.5%
Blood glucose level in 24 hours, percent from the initial level ([5]; 500 µg/kg): 98.9 ± 10.2%
Blood glucose level: mg/dl in 2 hours ([5]; 500 µg/kg): 98.8 ± 5.6 mg/dL
Blood glucose level: mg/dl in 5 hours ([5]; 500 µg/kg): 65.1 ± 1.1 mg/dL
Blood glucose level: mg/dl in 24 hours ([5]; 500 µg/kg): 143.4 ± 10.9 mg/dL
Blood glucose level: Initial level ([5]; 50 µg/kg): 146.9 ± 8.2 mg/dL
Blood glucose level: Initial level ([5]; 500 µg/kg): 145.2 ± 10.6 mg/dL
protective effect against cytodestructive HIV-1 effect (viability of MT-4 cells) ([6]; 1.0 and 0.1 µg/ml): comparable with the effect of the reference drug Azidothymidine
viability at 0.01 µg/mL ([6]; Human immunodeficiency virus 1, MT4, 168 h, 0.01 µg/ml, series 1 (infected cells 10-17, non-infected 90), read-out: Viability of cells in percent): 18%
viability at 0.1 µg/mL ([6]; Human immunodeficiency virus 1, MT4, 168 h, 0.1 µg/ml, series 1 (infected cells 10-17, non-infected 90), read-out: Viability of cells in percent): 39%
viability at 1 µg/mL ([6]; Human immunodeficiency virus 1, MT4, 168 h, 1.0 µg/ml, series 1 (infected cells 10-17, non-infected 90), read-out: Viability of cells in percent): 68%

γ-L-glutamylhistamine [compound XLIV]
Blood glucose level (mg/dl) 24 hours after ([1]; 50 µg/kg): 79.9 ± 5.2 mg/dL
Blood glucose level (mg/dl) 24 hours after ([1]; 500 µg/kg): 83.7 ± 4.0 mg/dL
Blood glucose level (mg/dl) 2 hours after ([1]; 50 µg/kg): 60.8 ± 4.0 mg/dL
Blood glucose level (mg/dl) 5 hours after ([1]; 50 µg/kg): 64.0 ± 3.1 mg/dL
Blood glucose level (mg/dl) 2 hours after ([1]; 500 µg/kg): 64.8 ± 4.2 mg/dL
Blood glucose level (mg/dl) 5 hours after ([1]; 500 µg/kg): 65.9 ± 3.9 mg/dL
Blood glucose level (mg/dl) 2 hours before ([1]; 50 µg/kg): 81.2 ± 3.8 mg/dL
Blood glucose level (mg/dl) 2 hours before ([1]; 500 µg/kg): 80.8 ± 2.7 mg/dL
portion of active macrophages [2]: more pronounced at a dose 500 µg/kg
Activity of macrophages, percent [2, 7]: 23.9 ± 4.4%
Activity of macrophages, percent [2, 8]: 17.4 ± 2.5%
Activity of macrophages, percent [2, 9]: 37.3 ± 3.4%
Activity of macrophages, percent [2, 10]: 37.3 ± 3.9%
Activity of macrophages, percent [2, 11]: 34.9 ± 5.9%
Activity of macrophages, percent [2, 12]: 35.8 ± 4.4%
Activity of macrophages, percent [2, 13]: 5.4 ± 2.0%
Activity of macrophages, percent [2, 14]: 9.4 ± 2.9%
